Measurements published in ChEMBL document CHEMBL3885861, “Open TG-GATES”.

Organism: Rattus norvegicus
Assay: Open TG-GATES - Regimen: Single
Assay type: toxicity, organism-based, Sprague-Dawley
Parameters: regimen Single, gender Male, age 6 weeks
Conditions: in vivo, po, route gavage; for APTT / Bas / Eos / Fbg / Hb / Ht / Lym / MCH / MCHC / MCV / Mono / Neu / PT / Plat / RBC / Ret / WBC: tissue Blood; for KIDNEY_L / KIDNEY_R / KIDNEY_TOTAL: tissue Kidney; for LIVER: tissue Liver
[1] = 0 mg/kg, 24 h, tissue Plasma, dose level Control
[2] = 300 mg/kg, 3 h, tissue Plasma, dose level Low
[3] = 300 mg/kg, 6 h, tissue Plasma, dose level Low
[4] = 300 mg/kg, 9 h, tissue Plasma, dose level Low
[5] = 300 mg/kg, 24 h, dose level Low
[6] = 300 mg/kg, 24 h, tissue Plasma, dose level Low

O=C(O)c1ccccc1Nc1ccccc1 [FENAMIC ACID]
RALB [1]: 2.7 g/dL | TBIL [1]: 0.034 mg/dL | TC [1]: 77.6 mg/dL | TG [1]: 82.6 mg/dL | TP [1]: 5.6 g/dL | gamma-GTP [1]: 1 IU/L | TERMINAL_BW (300 mg/kg, 3 h, dose level Low): 209.1 g | APTT (300 mg/kg, 3 h, dose level Low): 16.8 s | Bas (300 mg/kg, 3 h, dose level Low): 0.8% | Eos (300 mg/kg, 3 h, dose level Low): 0.8% | Fbg (300 mg/kg, 3 h, dose level Low): 249.8 mg/dL | Hb (300 mg/kg, 3 h, dose level Low): 13.2 g/dL | Ht (300 mg/kg, 3 h, dose level Low): 40% | Lym (300 mg/kg, 3 h, dose level Low): 79.8% | MCH (300 mg/kg, 3 h, dose level Low): 20.5 pg | MCHC (300 mg/kg, 3 h, dose level Low): 33% | MCV (300 mg/kg, 3 h, dose level Low): 62.3 fL | Mono (300 mg/kg, 3 h, dose level Low): 2.2% | Neu (300 mg/kg, 3 h, dose level Low): 16.2% | PT (300 mg/kg, 3 h, dose level Low): 14.3 s | Plat (300 mg/kg, 3 h, dose level Low): 113.6 x10_4/uL | RBC (300 mg/kg, 3 h, dose level Low): 642.2 x10_4/ul | Ret (300 mg/kg, 3 h, dose level Low): 8.8% | WBC (300 mg/kg, 3 h, dose level Low): 95.7 x10_2/uL | KIDNEY_L (300 mg/kg, 3 h, dose level Low): 1 g | KIDNEY_R (300 mg/kg, 3 h, dose level Low): 0.9 g | KIDNEY_TOTAL (300 mg/kg, 3 h, dose level Low): 1.9 g | LIVER (300 mg/kg, 3 h, dose level Low): 8.2 g | A/G [2]: 0.9 | ALP [2]: 1661.4 IU/L | ALT [2]: 38.2 IU/L | AST [2]: 73.4 IU/L | BUN [2]: 12.4 mg/dL | CRE [2]: 0.2 mg/dL | Ca [2]: 11.1 mg/dL | Cl [2]: 107.2 meq/L | GLC [2]: 187.4 mg/dL | IP [2]: 9.6 mg/dL | K [2]: 4.4 meq/L | LDH [2]: 78.4 IU/L | Na [2]: 144.4 meq/L | PL [2]: 124.6 mg/dL | RALB [2]: 2.5 g/dL | TC [2]: 67.4 mg/dL | TG [2]: 93.4 mg/dL | TP [2]: 5.4 g/dL | gamma-GTP [2]: 1 IU/L | TERMINAL_BW (300 mg/kg, 6 h, dose level Low): 201.5 g | APTT (300 mg/kg, 6 h, dose level Low): 16.7 s | Bas (300 mg/kg, 6 h, dose level Low): 0.6% | Eos (300 mg/kg, 6 h, dose level Low): 0.8% | Fbg (300 mg/kg, 6 h, dose level Low): 248.8 mg/dL | Hb (300 mg/kg, 6 h, dose level Low): 13.5 g/dL | Ht (300 mg/kg, 6 h, dose level Low): 40.6% | Lym (300 mg/kg, 6 h, dose level Low): 74.6% | MCH (300 mg/kg, 6 h, dose level Low): 20.9 pg | MCHC (300 mg/kg, 6 h, dose level Low): 33.3% | MCV (300 mg/kg, 6 h, dose level Low): 62.9 fL | Mono (300 mg/kg, 6 h, dose level Low): 2.4% | Neu (300 mg/kg, 6 h, dose level Low): 21.4% | PT (300 mg/kg, 6 h, dose level Low): 14.5 s | Plat (300 mg/kg, 6 h, dose level Low): 114.4 x10_4/uL | RBC (300 mg/kg, 6 h, dose level Low): 645.8 x10_4/ul | Ret (300 mg/kg, 6 h, dose level Low): 8% | WBC (300 mg/kg, 6 h, dose level Low): 96.1 x10_2/uL | KIDNEY_L (300 mg/kg, 6 h, dose level Low): 0.9 g | KIDNEY_R (300 mg/kg, 6 h, dose level Low): 0.9 g | KIDNEY_TOTAL (300 mg/kg, 6 h, dose level Low): 1.8 g | LIVER (300 mg/kg, 6 h, dose level Low): 7.3 g | A/G [3]: 0.9 | ALP [3]: 1342.6 IU/L | ALT [3]: 38.4 IU/L | AST [3]: 73 IU/L | BUN [3]: 8.8 mg/dL | CRE [3]: 0.2 mg/dL | Ca [3]: 10.7 mg/dL | Cl [3]: 107.4 meq/L | GLC [3]: 152.8 mg/dL | IP [3]: 9.9 mg/dL | K [3]: 3.9 meq/L | LDH [3]: 66.6 IU/L | Na [3]: 144.2 meq/L | PL [3]: 116.8 mg/dL | RALB [3]: 2.5 g/dL | TC [3]: 58.6 mg/dL | TG [3]: 38.8 mg/dL | TP [3]: 5.3 g/dL | gamma-GTP [3]: 1.2 IU/L | TERMINAL_BW (300 mg/kg, 9 h, dose level Low): 205.1 g | APTT (300 mg/kg, 9 h, dose level Low): 17.9 s | Bas (300 mg/kg, 9 h, dose level Low): 0.6% | Eos (300 mg/kg, 9 h, dose level Low): 1% | Fbg (300 mg/kg, 9 h, dose level Low): 262.6 mg/dL | Hb (300 mg/kg, 9 h, dose level Low): 13.5 g/dL | Ht (300 mg/kg, 9 h, dose level Low): 40.6% | Lym (300 mg/kg, 9 h, dose level Low): 71.8% | MCH (300 mg/kg, 9 h, dose level Low): 20.9 pg | MCHC (300 mg/kg, 9 h, dose level Low): 33.1% | MCV (300 mg/kg, 9 h, dose level Low): 63.2 fL | Mono (300 mg/kg, 9 h, dose level Low): 2% | Neu (300 mg/kg, 9 h, dose level Low): 24.4% | PT (300 mg/kg, 9 h, dose level Low): 14.9 s | Plat (300 mg/kg, 9 h, dose level Low): 116.7 x10_4/uL | RBC (300 mg/kg, 9 h, dose level Low): 642.8 x10_4/ul | Ret (300 mg/kg, 9 h, dose level Low): 7.8% | WBC (300 mg/kg, 9 h, dose level Low): 78.3 x10_2/uL | KIDNEY_L (300 mg/kg, 9 h, dose level Low): 0.9 g | KIDNEY_R (300 mg/kg, 9 h, dose level Low): 0.9 g | KIDNEY_TOTAL (300 mg/kg, 9 h, dose level Low): 1.8 g | LIVER (300 mg/kg, 9 h, dose level Low): 7.2 g | A/G [4]: 0.9 | ALP [4]: 1734.8 IU/L | ALT [4]: 35 IU/L | AST [4]: 69.6 IU/L | BUN [4]: 13.4 mg/dL | CRE [4]: 0.2 mg/dL | Ca [4]: 10.9 mg/dL | Cl [4]: 108 meq/L | GLC [4]: 149 mg/dL | IP [4]: 11 mg/dL | K [4]: 3.8 meq/L | LDH [4]: 60.6 IU/L | Na [4]: 146 meq/L | PL [4]: 121.6 mg/dL | RALB [4]: 2.6 g/dL | TC [4]: 59.4 mg/dL | TG [4]: 39.8 mg/dL | TP [4]: 5.5 g/dL | gamma-GTP [4]: 1.2 IU/L | TERMINAL_BW [5]: 218.8 g | APTT [5]: 17.6 s | Bas [5]: 0.6% | Eos [5]: 0.6% | Fbg [5]: 269.2 mg/dL | Hb [5]: 13.3 g/dL | Ht [5]: 40.1% | Lym [5]: 80.6% | MCH [5]: 20.9 pg | MCHC [5]: 33.1% | MCV [5]: 63.2 fL | Mono [5]: 2.6% | Neu [5]: 15% | PT [5]: 14.4 s | Plat [5]: 121.2 x10_4/uL | RBC [5]: 634.4 x10_4/ul | Ret [5]: 7.4% | WBC [5]: 115.6 x10_2/uL | KIDNEY_L [5]: 1 g | KIDNEY_R [5]: 1 g | KIDNEY_TOTAL [5]: 2 g | LIVER [5]: 10.2 g | A/G [6]: 0.9 | ALP [6]: 1785.8 IU/L | ALT [6]: 38.6 IU/L | AST [6]: 71.2 IU/L | BUN [6]: 14 mg/dL | CRE [6]: 0.2 mg/dL | Ca [6]: 11.2 mg/dL | Cl [6]: 105.6 meq/L | GLC [6]: 173.4 mg/dL | IP [6]: 6.9 mg/dL | K [6]: 4 meq/L | LDH [6]: 130.6 IU/L | Na [6]: 144.2 meq/L | PL [6]: 143.2 mg/dL | RALB [6]: 2.6 g/dL
